The target in experiment [1] is T1, LecB (Pseudomonas aeruginosa, UniProt Q9HYN5). Put plainly: biochemical. Type of experiment: binding. The conditions noted are these: for rIC50 (MeMan): IC50 relative to Me-α-Man, below 1 = stronger ligand than Me-α-Man. The procedure: A LecB competition assay was carried out by a novel fluorescence polarization assay developed by the inventors of the present invention. To date, an enzyme-linked lectin assay (ELLA) is widely used for the evaluation in screening of the binding potential of ligands to LecB. This allows the evaluation of molecules over a broad affinity range, including monovalent ligands and oligomeric dendrimers thereof. ELLAs have been developed based on enzyme-linked immunosorbent assays (ELISA). […] Furthermore, the current ELLA protocol involves either a surface immobilization of LecB or a covalent modification of the lectin, which could interfere with ligand binding. Consequently, hits from the ELLA are usually further characterized by direct measurement of the binding process of the ligand with the native, unmodified protein using microcalorimetry, requiring large amounts of protein.
T1 sequence (Q9HYN5 entry or part of it): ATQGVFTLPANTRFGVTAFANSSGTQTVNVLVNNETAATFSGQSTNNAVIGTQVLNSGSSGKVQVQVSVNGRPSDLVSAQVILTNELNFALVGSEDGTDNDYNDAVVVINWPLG
In this assay format, the displacement of a fluorescently-labeled reporter ligand bound to the receptor by an inhibitor can be measured by mixing protein, inhibitor and reporter ligand in a given buffer system.
Similar conditions were applied, but the protein concentration was fixed at 150 nM. […] The resulting sigmoidal data points on the logarithmic inhibitor concentration scale were used to fit a one-site inhibition model and obtain IC50 values.
After addition of the reagents, the microtiter plates were centrifuged at 800 rpm for 1 min at 23° C. and incubated for 6 h at room temperature. The fluorescence was measured on a Tecan […] F500 plate reader (Tecan Austria GmbH) with excitation filters at 485 nm and emission filters at 535 nm in black 384-well microtiter plates (Greiner Bio-One). The G-factor was set on 0.92154 and the gain to 80. The measured intensities were reduced by buffer values. The data were analyzed with Graphpad Prism 5 and fitted according to the four parameter variable slope model.

Experiment [2] has as its target T1, LecB. The conditions noted are these: LecB and papain treated sheep erythrocytes.
Description: (§1) This agglutination could then be disrupted by addition of inhibitors of LecB.
(§2) For the yeast agglutination, PBS-washed S. cerevisiae strain ss328 was used instead of sheep red blood cells, without papain treatment.
For experiment [3], the target named is T1, LecB. The following applies: LecB 13 μg/mL and S. cerevisiae.
Description: as §1, §2
Experiment [4] has as its target T1, LecB. As to the kind of experiment: Binding thermodynamics to LecB by isothermal calorimetry. The following applies: average of two measurements. In general terms: ITC needs no label: the signal is the heat of the interaction.
Experiment [5] deals with T1, LecB. Put plainly: biochemical. Type of experiment: binding. The following applies: for kd: SPR, 1:1 binding model; for kon: pH 7.4, read-out: ka.

SMILES strings stand for the structures.

30 compounds from patent publication US9371351B2, “Glycomimetics as Pseudomonas aeruginosa lectin inhibitors” (priority 2012, dated 2016) can be followed below.

For `CO[C@H]1O[C@H](CNS(=O)(=O)c2ccccc2)[C@@H](O)[C@H](O)[C@@H]1O` [10a, Methyl 6-(phenylsulfonylamido)-6-deoxy-α-D-mannopyranoside], in experiment [1], the “rIC50 (MeMan)” value is reported as 0.09.
Broadly, the IC50 is the concentration that gives 50% inhibition. Read a low IC50 as greater potency in that assay. Take `CO[C@H]1O[C@H](CNS(=O)(=O)c2ccc(C)cc2)[C@@H](O)[C@H](O)[C@@H]1O` [10b, Methyl 6-(p-tosylamido)-6-deoxy-α-D-mannopyranoside]: in experiment [1], the IC50 was 68.2 µM and the “rIC50 (MeMan)” value is reported as 0.31.
`CO[C@H]1O[C@H](CNS(=O)(=O)c2ccc(Br)cc2)[C@@H](O)[C@H](O)[C@@H]1O` [10c, Methyl 6-(4-bromophenylsulfonylamido)-6-deoxy-α-D-mannopyranoside]: in experiment [1], half-maximal inhibition (IC50) required 24.9 µM and the “rIC50 (MeMan)” value was 0.12.
The corresponding values for `CO[C@H]1O[C@H](CNS(=O)(=O)c2ccc([N+](=O)[O-])cc2)[C@@H](O)[C@H](O)[C@@H]1O` [10d, Methyl 6-(4-nitrophenylsulfonylamido)-6-deoxy-α-D-mannopyranoside] are 47.4 µM and 0.21.
With `CO[C@H]1O[C@H](CNS(=O)(=O)c2c(C)cc(C)cc2C)[C@@H](O)[C@H](O)[C@@H]1O` [10e, Methyl 6-(2,4,6-trimethylphenylsulfonylamido)-6-deoxy-α-D-mannopyranoside], the “rIC50 (MeMan)” value in experiment [1] was 0.015.
Regarding `CO[C@H]1O[C@H](CNS(=O)(=O)c2c(C(C)C)cc(C(C)C)cc2C(C)C)[C@@H](O)[C@H](O)[C@@H]1O` [10f, Methyl 6-(2,4,6-triisopropylphenylsulfonylamido)-6-deoxy-α-D-mannopyranoside], in experiment [1], the IC50 worked out at 11.5 µM and the “rIC50 (MeMan)” value is 0.05.
As for `CO[C@H]1O[C@H](CNC(=O)/C=C/c2ccccc2)[C@@H](O)[C@H](O)[C@@H]1O` [11a, Methyl 6-(cinnamido)-6-deoxy-α-D-mannopyranoside], in experiment [2], the “inhibited agglutination at (concentration)” value worked out at 23 µM. In experiment [3], the “inhibition of agglutination at (concentration)” value came to 197 µM. In experiment [4], this compound came in with a TΔS of 3.4 kcal/mol and a ΔH of -2.9 kcal/mol. Also, the “rIC50 (MeMan)” value in experiment [1] was 0.3.
For `COc1ccccc1/C=C/C(=O)NC[C@H]1O[C@H](OC)[C@@H](O)[C@@H](O)[C@@H]1O` [11b, Methyl 6-(2-methoxycinnamido)-6-deoxy-α-D-mannopyranoside], in experiment [1], it took 45.8 µM to reach half-maximal inhibition (IC50) and the “rIC50 (MeMan)” value amounted to 0.21.
The corresponding values for `CO[C@H]1O[C@H](CNC(=O)/C=C/c2ccccc2[N+](=O)[O-])[C@@H](O)[C@H](O)[C@@H]1O` [11c, Methyl 6-(2-nitrocinnamido)-6-deoxy-α-D-mannopyranoside] are 75.5 µM and 0.35.
Take `CO[C@H]1O[C@H](CNC(=O)/C=C/c2ccccc2N)[C@@H](O)[C@H](O)[C@@H]1O` [11d, Methyl 6-(2-aminocinnamido)-6-deoxy-α-D-mannopyranoside]: in experiment [1], the IC50 stood at 52.6 µM and the “rIC50 (MeMan)” value came out at 0.24.
The corresponding values for `CO[C@H]1O[C@H](CNC(=O)/C=C/c2ccccc2C)[C@@H](O)[C@H](O)[C@@H]1O` [11e, Methyl 6-(2-methylcinnamido)-6-deoxy-α-D-mannopyranoside] are 62.7 µM and 0.29.
The corresponding values for `CO[C@H]1O[C@H](CNC(=O)/C=C/c2cccc([N+](=O)[O-])c2)[C@@H](O)[C@H](O)[C@@H]1O` [11f, Methyl 6-(3-nitrocinnamido)-6-deoxy-α-D-mannopyranoside] are 53.4 µM and 0.25.
The corresponding values for `CO[C@H]1O[C@H](CNC(=O)/C=C/c2cccc(N)c2)[C@@H](O)[C@H](O)[C@@H]1O` [11g, Methyl 6-(3-aminocinnamido)-6-deoxy-α-D-mannopyranoside] are 63 µM and 0.29.
For `COc1ccc(/C=C/C(=O)NC[C@H]2O[C@H](OC)[C@@H](O)[C@@H](O)[C@@H]2O)cc1` [11h, Methyl 6-(4-methoxycinnamido)-6-deoxy-α-D-mannopyranoside], in experiment [1], the IC50 was 66 µM and the “rIC50 (MeMan)” value came to 0.3.
The corresponding values for `CO[C@H]1O[C@H](CNC(=O)/C=C/c2ccc([N+](=O)[O-])cc2)[C@@H](O)[C@H](O)[C@@H]1O` [11i, Methyl 6-(4-nitrocinnamido)-6-deoxy-α-D-mannopyranoside] are 106 µM and 0.49.
The matching figures for `CO[C@H]1O[C@H](CNC(=O)/C=C/c2ccc(N)cc2)[C@@H](O)[C@H](O)[C@@H]1O` [11j, Methyl 6-(4-aminocinnamido)-6-deoxy-α-D-mannopyranoside]: 53.2 µM and 0.24.
For `CO[C@H]1O[C@H](CNC(=O)/C=C/c2ccc(C)cc2)[C@@H](O)[C@H](O)[C@@H]1O` [11k, Methyl 6-(4-methylcinnamido)-6-deoxy-α-D-mannopyranoside], the “rIC50 (MeMan)” value in experiment [1] is reported as 0.16.
On to `CO[C@H]1O[C@H](CNC(=O)/C=C/c2ccc(Cl)cc2)[C@@H](O)[C@H](O)[C@@H]1O` [11l, Methyl 6-(4-chlorocinnamido)-6-deoxy-α-D-mannopyranoside], for which, in experiment [1], half-maximal inhibition (IC50) required 48.4 µM and the “rIC50 (MeMan)” value is 0.22.
Turning to `CO[C@H]1O[C@H](CNC(=O)/C=C/c2ccc(Cl)cc2Cl)[C@@H](O)[C@H](O)[C@@H]1O` [11m, Methyl 6-(2,4-dichlorocinnamido)-6-deoxy-α-D-mannopyranoside], in experiment [1], the IC50 was 71 µM and the “rIC50 (MeMan)” value turned out to be 0.32.
Compound `COc1ccc(/C=C/C(=O)NC[C@H]2O[C@H](OC)[C@@H](O)[C@@H](O)[C@@H]2O)cc1OC` [11n, Methyl 6-(3,4-dimethoxycinnamido)-6-deoxy-α-D-mannopyranoside] registered a kd in experiment [5] of 0.0013 s⁻¹. Further, the “rIC50 (MeMan)” value in experiment [1] is listed as 0.13.
For the compound `CO[C@H]1O[C@H](CNC(=O)/C=C/c2ccc3c(c2)OCO3)[C@@H](O)[C@H](O)[C@@H]1O` [11o, Methyl 6-(3,4-methylenedioxycinnamido)-6-deoxy-α-D-mannopyranoside], in experiment [1], the midpoint of inhibition, the IC50, lay at 31.8 µM and the “rIC50 (MeMan)” value came to 0.15.
The corresponding values for `CO[C@H]1O[C@H](CNC(=O)Cc2ccccc2)[C@@H](O)[C@H](O)[C@@H]1O` [11q, Methyl 6-(phenylacetamido)-6-deoxy-α-D-mannopyranoside] are 205 µM and 0.93.
The corresponding values for `CO[C@H]1O[C@H](CNC(=O)c2ccc([N+](=O)[O-])cc2)[C@@H](O)[C@H](O)[C@@H]1O` [11r, Methyl 6-(4-nitrobenzoylamido)-6-deoxy-α-D-mannopyranoside] are 206 µM and 0.94.
The matching figures for `CO[C@H]1O[C@H](CNC(=O)c2ccccc2Cl)[C@@H](O)[C@H](O)[C@@H]1O` [11s, Methyl 6-(2-chlorobenzoylamido)-6-deoxy-α-D-mannopyranoside]: 239 µM and 1.09.
`CO[C@H]1O[C@H](CNC(=O)c2ccc3ccccc3c2)[C@@H](O)[C@H](O)[C@@H]1O` [11t, Methyl 6-(2-naphtoylamido)-6-deoxy-α-D-mannopyranoside]: in experiment [1], the IC50 amounted to 118 µM and the “rIC50 (MeMan)” value was 0.54.
Take `Cc1cc(C)c(S(=O)(=O)NC[C@H]2OC(C)[C@@H](O)C(O)C2O)c(C)c1` (stereo partly drawn) [13b, N-(6S-Methyl-3R,4R,5R-trihydroxy-tetrahydropyranosyl-2R-methyl)-2,4,6-trimethylphenyl sulfonamide]: in experiment [5], the kd worked out at 0.00041 s⁻¹ and the kon came to 1260 M⁻¹ s⁻¹.
Take `CO[C@H]1O[C@H](CO)[C@@H](O)[C@H](O)[C@@H]1O` [Me-α-D-Man, methyl α-D-mannopyranoside, reference compound]: the “inhibited agglutination at (concentration)” value in experiment [2] amounted to 113 µM. For the same compound, in experiment [3], the “inhibition of agglutination at (concentration)” value was found to be 444 µM. In experiment [4], this compound gave a TΔS of 2.6 kcal/mol and a ΔH of -3.2 kcal/mol.
As for `CC1OC(CNC(=O)/C=C/c2ccccc2)C(O)C(O)[C@@H]1O` (stereo partly drawn) [compound 13, N-(6S-Methyl-3R,4R,5R-trihydroxy-tetrahydropyranosyl-2R-methyl)-cinnamide], in experiment [5], the kd worked out at 0.00041 s⁻¹ and the kon was found to be 255 M⁻¹ s⁻¹. Moreover, the “rIC50 (MeMan)” value in experiment [1] amounted to 0.1.
`COC1O[C@H](CNS(=O)(=O)/C=C/c2ccccc2)C(O)C(O)[C@@H]1O` (stereo partly drawn) [compound 14, Methyl 6-(trans-β-styrenesulfonylamido)-6-deoxy-α-D-mannopyranoside] gave an IC50 in experiment [1] of 79 µM.
Still for that read-out and setting: to `CC1O[C@H](CNS(=O)(=O)/C=C/c2ccccc2)C(O)C(O)[C@@H]1O` (stereo partly drawn) [compound 15, N-(6S-Methyl-3R,4R,5R-trihydroxy-tetrahydropyranosyl-2R-methyl)-trans-β-styrene sulfonamide] belongs 12.7 µM.
